Assay results reported in patent EP2216022A1, “USE OF C[…] THE TREATMENT OF BASAL CELL CARCINOMA AND OTHER TUMORS” (Tas, Sinan, priority 2001, dated 2002).

How the values were obtained:
Format in all cases: in vivo, patient
[1] = tested on: basal cell carcinomas (BCC's); assay: Topical cyclopamine cream on basal cell carcinomas: clinical regression; conditions: Two BCC's (nasolabial fold, forehead); topical cream 18 mM cyclopamine, 10 ± 2 µl four times per day; visual disappearance of several tumor areas within less than a week, loss of translucency
Excerpt: (§1) These regions are seen to contain residual BCC`s displaying large cysts in the tumor center and smaller cystic structures of various sizes located among the residual BCC cells towards the periphery. • Fig 2D and Fig 2E show 1000X magnified appearances from the interior and palisading peripheral regions of these residual BCC's and show the presence of massive apoptotic activity among the residual BCC cells regardless of the tumor region.
1C : BCC, located on forehead, prior to tretment.

BCC cells [2] = assay: Apoptosis by morphological criteria on hematoxylene-eosine stained sections of excised treated BCC's; conditions: topical cream 18 mM cyclopamine, 10 ± 2 µl four times per day, excised on fifth and sixth days, means ± standard deviations, at least 16 high-power (1000 X) fields, p < 0.001 vs placebo
Excerpt: as §1
Cells undergoing apoptosis are known to be removed by macrophages and by nearby cells in normal tissues and the quantitation of apoptotic activity by morphological criteria on hematoxylene-eosine stained sections is known to provide an underestimate.
Fig 2A, 2B, 2C, 2D, 2E, 2F : Microscopic appearences of the cyclopamine- and placebo-treated BCC's, showing the cyclopamine-induced massive apoptotic death and removal of the tumor cells and the disappearence of tumor nodules to leave behind cystic spaces with no tumor cells. Skin areas corresponding to the pre-treatment positions of the BCC's were excised surgically on the fifth and sixth days of cyclopamine exposure with a margin of normal tissue and subjected to conventional fixation, sectioning and hematoxylene-eosine staining for microscopic analyses. 2A : Large cyst in the dermis corresponding to the position of a disappeared tumor nodule showing no residual tumor cells. […]

BCC cells [3] = assay: Immunohistochemical Ber-Ep4 labelling (differentiation marker) of treated BCC's; conditions: topical cream 18 mM cyclopamine, four times per day, excised on fifth and sixth days, means ± standard deviations, p < 0.001 vs placebo
Excerpt: as §1
The loss of translucency in the cyclopamine-treated BCC's raises the intriguing possibility of differentiation of BCC's under the influence of cyclopamine. This possibility, which can be tested by immunohistochemical analyses of the BCC's, is found to be the case in this invention. In normal epidermis, differentiation of basal tayer cells to the upper layer cells is accompanied by a loss of labelling with the monoclonal antibody Ber-Ep4. Ber-Ep4 labels also the BCC cells and is a known marker for these neoplasms.
(§2) Ber-Ep4 is a known differentiation marker that stains the BCC cells as well as the undifferentiated cells of the normal epidermis basal layer and of hair follicles but not the differentiated upper layer cells of normal epidermis. […] 3D and 3E : Decreased expression of p53 as detected by the monoclonal antibody DO-7 in cyclopamine-treated BCC's (3D) in comparison to the placebo-treated BCC's (3E). Expression of p53 is known to decrease upon differentiation of the epidermal basal cells and upon differentiation of cultured keratinocytes. It is also well known that the amount of p53, detectable by DO-7, increases in cells when they are exposed to DNA-damaging agents. […] Original magnifications are 400X for 3A, 3B, 3D, 3E, 1000X for 3C and 100X for 3F, 3G. All immunohistochemical labellings are with peroxidase-conjugated streptavidin binding to biotinylated secondary antibody; labelling is Indicated by the brown-colored staging. Sections shown in 3F and 3G are stained with Periodic Acid-Schiff and Alcian blue.

p53 = assay: Immunohistochemical DO-7 labelling (p53 expression) of treated BCC's; conditions: topical cream 18 mM cyclopamine; for % Of Cells Labelled With DO-7: four times per day, excised on fifth and sixth days, means ± standard deviations, p < 0.001 vs placebo
Excerpt: as §1
The p53 is a master regulator of the cellular response to DNA-damage. Amount of this protein is known to increase in the cell nucleus following exposure of cells to genotoxic agents. When the DNA-damage is increased beyond a threshold, p53 serves for the apoptotic death of cells. Radiation therapy of cancer and the genotoxic cancer chemotherapeutics that are currently common, act largely by this mechanism, i.e. by causation of apoptosis secondary to the damaging of DNA. The monoclonal antibody DO-7 can bind both normal and missense mutant (i.e., nonfunctional) forms of p53 and is known to be capable of detecting the increase of p53 in the cells following exposure to DNA-damaging agents.
Since expression of p53 is known to decrease in epidermal cells upon differentiation, the decreased DO-7 labelling of the cyclopamine-treated BCC's is likely to be secondary to the cyclopamine-induced differentiation of the BCC cells.
(§3) Ber-Ep4 is a known differentiation marker that stains the BCC cells as well as the undifferentiated cells of the normal epidermis basal layer and of hair follicles but not the differentiated upper layer cells of normal epidermis. […] 3D and 3E : Decreased expression of p53 as detected by the monoclonal antibody DO-7 in cyclopamine-treated BCC's (3D) in comparison to the placebo-treated BCC's (3E). Expression of p53 is known to decrease upon differentiation of the epidermal basal cells and upon differentiation of cultured keratinocytes. It is also well known that the amount of p53, detectable by DO-7, increases in cells when they are exposed to DNA-damaging agents. […]

BCC's = assay: Retraction of treated BCC's from stroma (arrest of proliferation), Periodic Acid-Schiff and Alcian blue sections; conditions: Cyclopamine-treated but not placebo-treated BCC's; associated with arrest of proliferation; topical cream 18 mM cyclopamine
Excerpt: as §1
Arrest of the proliferation of BCC's is known to be associated with their retraction from stroma. Although retraction from stroma can also be caused artefactually by improper fixation and processing of the tissues, adherence to published technical details ensures avoidance of such artefacts.
as §3

BCC cells [4] = assay: Ulex Europaeus lectin type 1 labelling (differentiation marker) of treated BCC's; conditions: Residual cells of cyclopamine-treated BCC's; lectin normally does not label BCC's; topical cream 18 mM cyclopamine
Excerpt: as §1
as §2, with “Sections shown in 3F and 3G are stained with Periodic Acid-Schiff and Alcian blue.” left out

[5] = tested on: normal epidermis and hair follicles; conditions: Normal skin exposed to the same schedule and doses of cyclopamine as the BCC's; undifferentiated basal layer cells preserved
Excerpt: as §1
4B and 4C Higher power views from different areas of cyclopamine-treated epidermis showing Ber-Ep4 labelling of the basal cells. […] Original magnification is 400X for 4A and 1000X for 4B, 4C, 4D, immunohistochemical detection procedure is the same as in Fig 3A, 3B; labelling is indicated by brown coloring.

[6] = Non-palisading (interior) cells of the BCC's
[7] = Peripheral palisading cells of the BCC's

## CC1=C2C[C@H]3[C@@H](CC=C4C[C@@H](O)CC[C@@]43C)[C@@H]2CC[C@]12O[C@@H]1C[C@H](C)CN[C@H]1[C@H]2C [Cyclopamine]
[1]
  clinical regressions of the BCC's: rapid clinical regressions
BCC cells [2]; [6]
  % Of Cells Showing ≥ 2 Morphological Signs Of Apoptosis On H&E Stained Tissue Sections: 18 ± 11%
BCC cells [2]; [7]
  % Of Cells Showing ≥ 2 Morphological Signs Of Apoptosis On H&E Stained Tissue Sections: 20 ± 8%
BCC cells [3]; [6]
  % Of Cells Labelled With Ber-Ep4: 0 ± 0%
BCC cells [3]; Non-palisading (interior) cells of the BCC's, listed as cyclopamine
  % Of Cells Labelled With Ber-Ep4: none
BCC cells [3]; [7]
  % Of Cells Labelled With Ber-Ep4: 0 ± 0%
BCC cells [3]; Peripheral palisading cells of the BCC's, listed as cyclopamine
  % Of Cells Labelled With Ber-Ep4: none
p53; Cyclopamine-treated BCC's in comparison to placebo-treated BCC's
  DO-7 labelling intensity and the frequency of labelled cells: markedly decreased
p53; [6]
  % Of Cells Labelled With DO-7: 5 ± 3%
p53; [7]
  % Of Cells Labelled With DO-7: 16 ± 11%
BCC's
  retraction of BCC's from stroma: consistently retracted from stroma
BCC cells [4]
  labelling of the residual cells with Ulex Europaeus lectin type 1: heterogenous labelling
[5]
  pattern of labelling with Ber-Ep4 of cyclopamine-treated normal epidermis and hair follicle: normal pattern of labelling
